In ChEMBL document CHEMBL1153896, “Antiproliferative cardenolide glycosides of Elaeodendron alluaudianum from the Madagascar Rainforest” (Bioorg Med Chem, 2009):

Assays:
Type in all cases: functional, cell-based
[1] = tested on: KB; experiment: Antiproliferative activity against human KB cells
[2] = Antiproliferative activity against HSG cells; details: Homo sapiens
[3] = tested on: U-937; experiment: Antiproliferative activity against human U937 cells after 96 hrs by celltiter-glo luminescent cell viability assay; details: U-937, 96 h
[4] = tested on: A2780; experiment: Antiproliferative activity against human A2780 cells after 96 hrs by celltiter-glo luminescent cell viability assay; details: A2780, 96 h

Row | Compound | IC50 [1] | IC50 [2] | IC50 [3] | IC50 [4]
1 | C[C@H]1O[C@@H](O[C@H]2CC[C@]3(C=O)[C@H]4[C@H](O)C[C@]5(C)[C@@H](C6=CC(=O)OC6)CC[C@]5(O)[C@@H]4CC[C@]3(O)C2)[C@H](O)[C@H](O)[C@H]1O | 74 nM |  |  | 
2 | C[C@H]1O[C@@H](O[C@H]2[C@H](O)[C@H](O)[C@H](O[C@H]3CC[C@]4(C=O)[C@H]5[C@H](O)C[C@]6(C)[C@@H](C7=CC(=O)OC7)CC[C@]6(O)[C@@H]5CC[C@]4(O)C3)O[C@@H]2C)[C@@H](O)[C@@H](O)[C@@H]1O |  | 49 nM |  | 
3 | C[C@H]1O[C@@H](O[C@H]2CC[C@]3(C=O)[C@H]4[C@H](O)C[C@]5(C)[C@@H](C6=CC(=O)OC6)CC[C@]5(O)[C@@H]4CC[C@]3(O)C2)[C@H](O)[C@H](O)[C@@H]1O[C@@H]1O[C@H](CO)[C@@H](O)[C@@H](O)[C@H]1O [ELAEODENDROSIDE W] |  |  | 80 nM | 70 nM
4 | C[C@H]1O[C@@H](O[C@H]2CC[C@]3(CO)[C@H]4[C@H](O)C[C@]5(C)[C@@H](C6=CC(=O)OC6)CC[C@]5(O)[C@@H]4CC[C@]3(O)C2)[C@H](O)[C@H](O)[C@@H]1O[C@@H]1O[C@H](CO)[C@@H](O)[C@@H](O)[C@H]1O [ELAEODENDROSIDE V] |  |  | 150 nM | 120 nM
